The values that follow come from patent publication US12121514B2, “Nonselective metabotropic glutamate receptor activators for treatment of attention deficit disorder and 22Q syndrome” (THE CHILDREN'S HOSPITAL OF PHILADELPHIA, priority 2015, dated 2024).

Several values for one entry are separate records, joined by “and”; a condition that tells them apart may be missing. Equal entries are not always repeated.

In data set [1] the test system is adolescent subjects with ADHD and at least one genetic alteration in an mGluR network gene. Nature of the data set: PERMP-Math test, Phase Ib trial of NFC-1. Format: in vivo, human. Conditions: for Change in PERMP / Final PERMP: individual subjects, monohydrate; for Change in PERMP: placebo baseline (week 1) to final (week 5); for Final PERMP: week 5. From the text: The Permanent Product Measure of Performance (PERMP)-Math is an individualized mathematics test that can be performed by a patient periodically when on and off medication for ADHD. It is used, for example, to monitor classroom performance in an experimental laboratory setting. In general, the PERMP test comprises 5 pages of 400 problems that subjects are directed to attempt over a 10-minute period. Subjects may be given a pre-test first to determine their mathematical skill level. Subjects are directed to answer as many questions as they can in the 10-minute period and the test is generally scored on a 0-800-point scale based on the number of questions attempted and the number of questions answered correctly within the time limit. Subjects receive a different version of the test at each setting. All efficacy assessments, except actigraphy, were made at study enrollment (“enrollment baseline”) and again, including actigraphy, once-per-week for the placebo week (“week 1” or “placebo baseline”) and at each of the 4 weeks of NFC-1 treatment. These efficacy measures include items 1-18 of the Vanderbilt scale assessing symptoms related to inattentiveness and hyperactivity-impulsiveness as well as additional questions 19-47 of the Vanderbilt scale assessing other behavioral symptoms (conducted by parent), actigraphy for quantitative measurement of activity, Quotient® ADHD test for objective measurement of micro-motion and shifts in attention state, PERMP-Math test, and CGI-I and CGI-S for assessment of global functioning. Prior to receiving the PK assessment dose, subjects returned to the clinic to be administered the PERMP-Math tests, subjected to actigraphy (set to activate at the time of first placebo dose 2 days later), and to be given a general physical examination including vital signs and weight, blood and urine sampling, and a pregnancy test for female subjects. During the 5-week placebo and dose-escalation phases of the study, subjects visited the clinic again at the end of each week to be administered the Quotient® and PERMP-Math tests, subjected to actigraphy, Vanderbilt and BRIEF measurements (conducted by parent), and to be given a general physical examination including vital signs and weight, blood and urine sampling, and a pregnancy test for female subjects. Based on the data in Table 1, the mean change in PERMP score from pre-study baseline to week 5 was negative 3.43. When analyzed based on genetic tier, there were no significant differences from the overall mean change. […] The test was conducted at the time of clinic visits and thus, for each subject, was not necessarily given at the same time post dose or same time of day from one week to the next. The test was also conducted during a clinic visit and not in a classroom setting. Thus, clinic waiting room distractions, for example, could have varied from one visit to the next and were not controlled.

Data set [2] has as its system dementia-related cognitive impairment patients. The note with it: cited from earlier work.

As for `O=C1CC[C@H](C(=O)N2CCCCC2)N1` [NFC-1, fasoracetam monohydrate], the PERMP in data set [1] (22q syndrome Subject 110, Week 2, 50 mg bid) is 55; in data set [1] (22q syndrome Subject 110, Week 3, 100 mg bid) it was 51; in data set [1] (22q syndrome Subject 110, Week 4, 200 mg bid), 75; in data set [1] (22q syndrome Subject 110, Week 5, 400 mg bid) it was 71; in data set [1] (22q syndrome Subject 127, Week 2, 50 mg bid) it was 167; in data set [1] (22q syndrome Subject 127, Week 3, 100 mg bid) it was 68. Moreover, the PERMP was 72 in data set [1] (22q syndrome Subject 127, Week 4, 200 mg bid) and 64 in data set [1] (22q syndrome Subject 127, Week 5, 400 mg bid). The “Change in PERMP” value in data set [1] (max dose 100 mg bid) was 23 and 0 and 2; in data set [1] (max dose 200 mg bid), −18 and 19 and 4 and 31 and −70 and 43 and −2 and −24 and −11; in data set [1] (max dose 400 mg bid) it was −43 and 26 and −9 and 23 and −11 and 12 and 14 and −12 and 0 and −16 and −4 and −37 and 9 and −28 and −14 and −2 and 15 and −23. Moreover, the “Final PERMP” value in data set [1] (max dose 100 mg bid) was 101 and 125 and 135; in data set [1] (max dose 200 mg bid), 103 and 111 and 76 and 160 and 55 and 152 and 71 and 80 and 74; in data set [1] (max dose 400 mg bid) it was 87 and 71 (2×) and 88 and 93 and 48 and 68 and 92 and 64 (3×) and 99 and 80 and 34 and 104 and 46 and 75 and 168. Moreover, in data set [1] (overall), the “PERMP results over the course of the study” value is given as “did not show significant change”. In addition, in data set [2] (Phase I-III clinical trials in dementia-related cognitive impairment), the safety and tolerability entry is “generally safe and well tolerated”. Further, the “effects on psychiatric symptoms” value in data set [2] (Phase III data, cerebral infarct patients and adult dementia patients with cerebrovascular diseases) is given as “beneficial effects”. Further, in data set [2] (Phase III trials), the efficacy in dementia result is reported as “did not show sufficient efficacy”.
